Results on eleven compounds are retold here after PubChem BioAssay (NCI).

Test systems include ACHN renal; BT-549 breast; DU-145 prostate; HCT-15 colon; HOP-62 NSCLC; M14 melanoma; MDA-MB-435; OVCAR-3 ovarian; SK-MEL-5 melanoma; SNB-75 CNS.
Common to all, as to assay: growth of human tumour cells (NCI), 48 h

SMILES strings stand for the structures.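 1) Cells in 96-well plates. 2) Compound, 48 h, 5 concentrations. 3) Linear interpolation between surrounding doses. 4) Unreached endpoint = highest concentration. At the GI50, growth is halved. TGI denotes the concentration required for complete inhibition of growth.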

On to `COC(=O)c1cncc(/C=C/c2c(C)cc(O)cc2C)c1`, for which the GI50 in the test with ACHN renal is above 21500 nM; with BT-549 breast it was above 20100 nM; in the test on DU-145 prostate it was 13600 nM; in the test with HCT-15 colon, 11100 nM; with HOP-62 NSCLC it was 9820 nM; in the test on M14 melanoma, 8690 nM. Further, the GI50 in the test on MDA-MB-435 was 3420 nM; with OVCAR-3 ovarian, 10100 nM; in the test with SK-MEL-5 melanoma it was 6780 nM; in the test with SNB-75 CNS, above 9930 nM. For the same compound, the TGI in the test on ACHN renal is above 25000 nM; in the test on BT-549 breast, above 25000 nM; with DU-145 prostate, above 25000 nM; in the test on HCT-15 colon it was above 25000 nM; with HOP-62 NSCLC it was above 20500 nM; in the test on M14 melanoma it was 24600 nM. The TGI in the test on MDA-MB-435 is 11700 nM; in the test with OVCAR-3 ovarian it was above 21100 nM; in the test on SK-MEL-5 melanoma, above 16900 nM; in the test on SNB-75 CNS, above 18800 nM.
For the compound `COc1cc2nc(-c3cc(F)ccc3O)nc(N[C@@H]3CNC[C@H]3C(C)(C)O)c2cc1OC`, the GI50 with ACHN renal is 1750 nM; in the test with BT-549 breast, 1640 nM; in the test with DU-145 prostate, 1510 nM; with HCT-15 colon, 1790 nM; in the test with HOP-62 NSCLC, 1260 nM; in the test with M14 melanoma, 1870 nM. The GI50 was 1650 nM with MDA-MB-435, 1900 nM in the test with OVCAR-3 ovarian, 1740 nM in the test on SK-MEL-5 melanoma and 420 nM in the test with SNB-75 CNS. Besides, the TGI came out at 3380 nM in the test with ACHN renal; 3090 nM with BT-549 breast; 2960 nM with DU-145 prostate; 3460 nM with HCT-15 colon; 2760 nM with HOP-62 NSCLC; 3470 nM in the test with M14 melanoma. Also, the TGI in the test on MDA-MB-435 was 3030 nM; in the test with OVCAR-3 ovarian, 3620 nM; with SK-MEL-5 melanoma, 3150 nM; in the test with SNB-75 CNS, 2710 nM.
Turning to `N#CCCN1C/C(=C/c2ccc(Cl)cc2)C(=O)/C(=C/c2ccc(Cl)cc2)C1`, the GI50 with ACHN renal was 1630 nM; in the test with BT-549 breast, 1240 nM; in the test on DU-145 prostate, 1900 nM; in the test on HCT-15 colon, 412 nM; with HOP-62 NSCLC, 516 nM; in the test on M14 melanoma, 1800 nM. Moreover, the GI50 with MDA-MB-435 was 1370 nM; with OVCAR-3 ovarian, 1200 nM; with SK-MEL-5 melanoma, 1590 nM; with SNB-75 CNS it was 2190 nM. Also, the TGI in the test with ACHN renal worked out at 3280 nM; in the test with BT-549 breast, 2650 nM; with DU-145 prostate, 4200 nM; in the test with HCT-15 colon, 1780 nM; in the test on HOP-62 NSCLC it was 2940 nM; with M14 melanoma, 3990 nM. In addition, the TGI in the test with MDA-MB-435 was 2990 nM; in the test on OVCAR-3 ovarian it was 2500 nM; in the test on SK-MEL-5 melanoma it was 2980 nM; with SNB-75 CNS it was 6800 nM.
For `C=CCN1CC(=O)N2[C@@H](Cc3ccc(O)cc3F)C(=O)N(Cc3cccc(N4CC(N5CCN(CC)CC5)C4)n3)C[C@@H]2N1C(=O)NCc1ccccc1`, the GI50 with ACHN renal was 393 nM; with BT-549 breast, 111 nM; in the test on DU-145 prostate, 84.4 nM; in the test with HCT-15 colon, 449 nM; in the test with HOP-62 NSCLC, 56.2 nM; with M14 melanoma, 44.5 nM. Besides, the GI50 with MDA-MB-435 was 102 nM; in the test with OVCAR-3 ovarian it was 32.8 nM; in the test with SK-MEL-5 melanoma, 70.3 nM; in the test with SNB-75 CNS it was 17 nM. Besides, the TGI was above 100000 nM in the test with ACHN renal; above 54100 nM with BT-549 breast; above 100000 nM with DU-145 prostate; above 20900 nM in the test on HCT-15 colon; above 100000 nM with HOP-62 NSCLC; 19600 nM in the test on M14 melanoma. Also, the TGI in the test with MDA-MB-435 is above 100000 nM; in the test with OVCAR-3 ovarian, above 100000 nM; in the test with SK-MEL-5 melanoma it was 330 nM; in the test with SNB-75 CNS it was 131 nM.
On to `Cc1ccc(-c2nc([P+](c3ccccc3)(c3ccccc3)c3ccccc3)c(S(=O)(=O)c3ccc(C)cc3)o2)cc1`, for which the GI50 was 1460 nM in the test with ACHN renal; 1610 nM in the test on BT-549 breast; 1270 nM in the test on DU-145 prostate; 1440 nM in the test with HCT-15 colon; 1470 nM in the test with HOP-62 NSCLC; 1510 nM in the test on M14 melanoma. Also, the GI50 is 1560 nM in the test on MDA-MB-435, 755 nM with OVCAR-3 ovarian, 1810 nM in the test with SK-MEL-5 melanoma and 1210 nM with SNB-75 CNS. The TGI worked out at 2780 nM in the test on ACHN renal; 3100 nM with BT-549 breast; 2520 nM in the test with DU-145 prostate; 3230 nM with HCT-15 colon; 4560 nM with HOP-62 NSCLC; 3270 nM in the test on M14 melanoma. Besides, the TGI in the test on MDA-MB-435 came out at 3040 nM; with OVCAR-3 ovarian it was 2070 nM; with SK-MEL-5 melanoma, 3400 nM; with SNB-75 CNS, 4410 nM.
In the case of `CCN(CC)CCCCCCNc1cc(OC)cc2cccnc12`, the GI50 with ACHN renal is 1840 nM; in the test on BT-549 breast, 17400 nM; in the test on DU-145 prostate, 1800 nM; in the test on HCT-15 colon it was 1900 nM; in the test on HOP-62 NSCLC, 2060 nM; with M14 melanoma, 1930 nM. Moreover, the GI50 with MDA-MB-435 was 1840 nM; in the test on OVCAR-3 ovarian, 1740 nM; in the test with SK-MEL-5 melanoma, 2530 nM; in the test with SNB-75 CNS it was 13800 nM. The TGI in the test with ACHN renal turned out to be 3560 nM; in the test with BT-549 breast, 33600 nM; with DU-145 prostate it was 3650 nM; with HCT-15 colon, 3780 nM; with HOP-62 NSCLC, 5110 nM; in the test with M14 melanoma, 3740 nM. In addition, the TGI in the test on MDA-MB-435 is 3630 nM; in the test with OVCAR-3 ovarian it was 3400 nM; in the test with SK-MEL-5 melanoma it was 6340 nM; in the test with SNB-75 CNS, 30600 nM.
Turning to `O=C(O)CCC(=O)c1ccc2sc3ccccc3c2c1`, the TGI in the test with ACHN renal, in the test with BT-549 breast, with DU-145 prostate, with HCT-15 colon, in the test with HOP-62 NSCLC and in the test on M14 melanoma was above 100000 nM throughout. The TGI in the test with MDA-MB-435, with OVCAR-3 ovarian, with SK-MEL-5 melanoma and with SNB-75 CNS was above 100000 nM throughout.
For `OC(C#Cc1ccccc1)(c1ccccc1)c1ccccc1`, the TGI in the test with ACHN renal, in the test on BT-549 breast, in the test on DU-145 prostate, with HCT-15 colon, in the test with HOP-62 NSCLC and in the test on M14 melanoma was above 100000 nM in each case. In addition, the TGI was 56300 nM in the test with MDA-MB-435, 85300 nM with OVCAR-3 ovarian, 37700 nM in the test on SK-MEL-5 melanoma and above 100000 nM with SNB-75 CNS.
As to `CCCCCCNC(=O)Oc1ccc(/C(=C(\C)c2ccc(Cl)cc2)c2ccc(OCCN3CCCCC3)cc2)cc1`, the GI50 was 4870 nM in the test on ACHN renal; 3610 nM in the test with BT-549 breast; 6260 nM in the test on DU-145 prostate; 1070 nM in the test with HCT-15 colon; 5280 nM with HOP-62 NSCLC; 785 nM with M14 melanoma. For the same compound, the GI50 with MDA-MB-435 was 3730 nM; with OVCAR-3 ovarian, 4390 nM; in the test with SK-MEL-5 melanoma, 2460 nM; in the test with SNB-75 CNS, 5590 nM. Further, the TGI is 9550 nM in the test on ACHN renal; 8120 nM in the test on BT-549 breast; 16400 nM in the test with DU-145 prostate; 4710 nM with HCT-15 colon; 11900 nM with HOP-62 NSCLC; 3650 nM with M14 melanoma. Moreover, the TGI with MDA-MB-435 was determined as 7980 nM; in the test on OVCAR-3 ovarian it was 9420 nM; with SK-MEL-5 melanoma, 6710 nM; with SNB-75 CNS, 14300 nM.
Consider `CCC1(O)C(=O)OCc2c1cc1n(c2=O)Cc2cc3c(NC(=O)CN)cccc3nc2-1` (stereo not given), for which the GI50 in the test with ACHN renal was 187 nM; in the test on BT-549 breast, 477 nM; with DU-145 prostate, 348 nM; with HCT-15 colon, 5220 nM; in the test on HOP-62 NSCLC, 84.7 nM; with M14 melanoma it was 532 nM. The GI50 in the test on MDA-MB-435 was 5400 nM; in the test with OVCAR-3 ovarian, 3300 nM; in the test with SK-MEL-5 melanoma, 800 nM; in the test on SNB-75 CNS, 346 nM. Further, the TGI with ACHN renal is 2710 nM; with BT-549 breast it was above 26200 nM; with DU-145 prostate, above 20200 nM; in the test on HCT-15 colon, above 100000 nM; with HOP-62 NSCLC, 622 nM; with M14 melanoma it was 8730 nM. The TGI in the test on MDA-MB-435 was above 70000 nM; in the test on OVCAR-3 ovarian, 22300 nM; with SK-MEL-5 melanoma, 4780 nM; with SNB-75 CNS, 5140 nM.
In the case of `Oc1cccc2ccc(N/N=C/c3cc(CN4CCOCC4)c(O)c4ncccc34)nc12`, the GI50 is below 11.9 nM in the test on ACHN renal; 36.3 nM in the test on BT-549 breast; 64.5 nM in the test with DU-145 prostate; below 10.4 nM in the test with HCT-15 colon; 28.1 nM in the test with HOP-62 NSCLC; 39.2 nM with M14 melanoma. The GI50 is 16.5 nM with MDA-MB-435, 39.2 nM in the test on OVCAR-3 ovarian, 12.4 nM with SK-MEL-5 melanoma and 25.3 nM in the test on SNB-75 CNS. The TGI in the test on ACHN renal is 1470 nM; with BT-549 breast it was 2780 nM; in the test on DU-145 prostate it was 6220 nM; in the test on HCT-15 colon, 1780 nM; in the test with HOP-62 NSCLC it was 1440 nM; in the test with M14 melanoma it was 1580 nM. Also, the TGI in the test on MDA-MB-435 came out at 2860 nM; with OVCAR-3 ovarian it was 2090 nM; in the test with SK-MEL-5 melanoma, 37.5 nM; with SNB-75 CNS, 2000 nM.
